# According to patent US20250170140A1, “PHARMACEUTICAL COMPOSITION FOR PREVENTING OR TREATING CANCER COMPRISING CARNITINE ACYLCARNITINE CARRIER INHIBITOR AND PEROXISOMAL BETA OXIDATION INHIBITOR” (priority 2021, published 2025):
# Read-outs that look alike come from different tables or passages of the source.
# Legend:
# Format in all cases: cell-based
# [1] = test system: MIA PaCa-2; experiment: SRB assay, cancer cell growth, pancreatic cancer cell line MIA PaCa-2
# Experimental: (§1) As a comparison, omeprazole (KN510) and trimetazidine (KN713), a 3-ketoacyl CoA thiolase inhibitor, were co-treated. […] After cell inoculation, 96-well cell culture plates were incubated for 24 hours before the addition of experimental drugs. […] The cells were then incubated in a CO2 incubator for 48 hours, after which the assay was terminated by the addition of cold TCA. Cells were fixed in situ by gently adding 50 μl of cold 50% (w/v) TCA (final concentration: 10% TCA) and incubated at 4° C. for 60 min. The supernatant was discarded, and the plate was washed five times with distilled water and air dried. Sulforhodamine B (SRB) solution (100 μl) of 0.4% (w/v) in 1% acetic acid was added to each well, and the plate was left at room temperature for 10 min. After staining, unbound dye was removed by washing five times with 1% acetic acid, and the plate was air-dried. The bound dye was then solubilized with 10 mM trizma base, and the absorbance was recorded at 515 nm using an automated plate reader. […] The predicted synergistic activity of a combination of the present invention can be calculated using the Colby Equation in Equation 1 (S.R. Colby, Weeds, 1967, pp. 15, 20-22): α and β are the measured anti-cancer activity of each compound alone, and E is the predicted anti-cancer activity of a mixture of α and β as a prediction. In the present invention, the actual measure of anti-cancer activity of the combination treatment was the inhibition rate of cancer cell growth (%), and the predicted value (E) of the combination treatment was measured by substituting it into the above Colby Equation.
# [2] = test system: MDA-MB-231 cells; experiment: SRB assay, breast cancer cell line MDA-MB-231
# Experimental: as §1, with “20-22):” for “20-22): α and β are the measured anti-cancer activity of each compound alone, and E is the predicted anti-cancer activity of a mixture of α and β as a prediction.”
# [3] = test system: SF295 cells; experiment: SRB assay, glioblastoma cell line SF295
# Experimental: as §1, with “20-22):” for “20-22): α and β are the measured anti-cancer activity of each compound alone, and E is the predicted anti-cancer activity of a mixture of α and β as a prediction.”
# [4] = test system: SK-HEP-1 cells; experiment: SRB assay, liver cancer cell line SK-HEP-1
# Experimental: as §1, with “20-22):” for “20-22): α and β are the measured anti-cancer activity of each compound alone, and E is the predicted anti-cancer activity of a mixture of α and β as a prediction.”
# [5] = test system: UACC-62 cells; experiment: SRB assay, melanoma cell line UACC-62
# Experimental: as §1, with “20-22):” for “20-22): α and β are the measured anti-cancer activity of each compound alone, and E is the predicted anti-cancer activity of a mixture of α and β as a prediction.”
# [6] = test system: SK-MEL-5; experiment: SRB assay, melanoma cell line SK-MEL-5
# Experimental: as §1, with “20-22):” for “20-22): α and β are the measured anti-cancer activity of each compound alone, and E is the predicted anti-cancer activity of a mixture of α and β as a prediction.”
# [7] = test system: H1975 cells; experiment: SRB assay, lung cancer cells H1975
# Experimental: as §1, with “20-22):” for “20-22): α and β are the measured anti-cancer activity of each compound alone, and E is the predicted anti-cancer activity of a mixture of α and β as a prediction.”
# [8] = test system: SK-OV-3 cells; experiment: SRB assay, ovarian cancer cells SK-OV-3
# Experimental: as §1, with “20-22):” for “20-22): α and β are the measured anti-cancer activity of each compound alone, and E is the predicted anti-cancer activity of a mixture of α and β as a prediction.”
# [9] = test system: PC-3 cells; experiment: SRB assay, prostate cancer cells PC-3
# Experimental: as §1, with “20-22):” for “20-22): α and β are the measured anti-cancer activity of each compound alone, and E is the predicted anti-cancer activity of a mixture of α and β as a prediction.”
# [10] = Homo sapiens, KN510 100 μM, read-out: Inhibition rate of cancer cell growth (%) (Actual value)
# [11] = Homo sapiens, KN510 200 μM, read-out: Inhibition rate of cancer cell growth (%) (Actual value)
smiles,measurement,setting,value
"COc1ccc2[nH]c([S+]([O-])Cc3ncc(C)c(OC)c3C)nc2c1 (centres unmarked) [KN510, omeprazole]",inhibition at 100 µM,"[1]; Homo sapiens, MIA PaCa-2, MIA PaCa-2 (Example 11), KN510 100 μM, read-out: Inhibition rate of cancer cell growth (%) (Actual value)",30.2%
same,inhibition at 200 µM,"[1]; Homo sapiens, MIA PaCa-2, MIA PaCa-2 (Example 11), KN510 200 μM, read-out: Inhibition rate of cancer cell growth (%) (Actual value)",78.2%
same,inhibition at 200 µM,"[1]; Homo sapiens, MIA PaCa-2, MIA PaCa-2, Example 1-3, Table 4, KN510 200 μM, read-out: Inhibition rate of cancer cell growth (%) (Actual value)",74.1%
same,GI50,"[1]; Homo sapiens, MIA PaCa-2, 48 hours, read-out: GI50 (Half maximal growth inhibition concentration)",117 µM
same,Cancer cell growth rate Average (%),"[1]; MIA PaCa-2 (Example 11), KN510 100 μM",69.78%
same,Cancer cell growth rate Average (%),"[1]; MIA PaCa-2 (Example 11), KN510 200 μM",21.75%
same,Cancer cell growth rate Average (%),"[1]; MIA PaCa-2, Conc. 10^−3M, Table 1",−17.07%
same,Cancer cell growth rate Average (%),"[1]; MIA PaCa-2, Conc. 10^−4M, Table 1",68.78%
same,Cancer cell growth rate Average (%),"[1]; MIA PaCa-2, Conc. 10^−5M, Table 1",94.56%
same,Cancer cell growth rate Average (%),"[1]; MIA PaCa-2, Conc. 10^−6M, Table 1",93.66%
same,Cancer cell growth rate Average (%),"[1]; MIA PaCa-2, Conc. 10^−7M, Table 1",97.84%
same,Cancer cell growth rate Average (%),"[1]; MIA PaCa-2, Conc. 10^−8M, Table 1",101.17%
same,Cancer cell growth rate Average (%),"[1]; MIA PaCa-2, Example 1-2, Table 2, KN510 200 μM",25.89%
same,Cancer cell growth rate Average (%),"[1]; MIA PaCa-2, comparative example, Table 3, KN510 100 μM",69.73%
same,Cancer cell growth rate Average (%),"[1]; MIA PaCa-2, comparative example, Table 3, KN510 200 μM",35.32%
same,inhibition at 100 µM,[2]; [10],29.7%
same,inhibition at 200 µM,[2]; [11],71.9%
same,Cancer cell growth rate Average (%),[2]; KN510 100 μM,70.29%
same,Cancer cell growth rate Average (%),[2]; KN510 200 μM,28.13%
same,inhibition at 100 µM,"[3]; Homo sapiens, SF-295, KN510 100 μM, read-out: Inhibition rate of cancer cell growth (%) (Actual value)",32%
same,inhibition at 200 µM,"[3]; Homo sapiens, SF-295, KN510 200 μM, read-out: Inhibition rate of cancer cell growth (%) (Actual value)",63.5%
same,Cancer cell growth rate Average (%),[3]; KN510 100 μM,67.98%
same,Cancer cell growth rate Average (%),[3]; KN510 200 μM,36.53%
same,inhibition at 100 µM,"[4]; Homo sapiens, SK-HEP1, KN510 100 μM, read-out: Inhibition rate of cancer cell growth (%) (Actual value)",46.7%
same,inhibition at 200 µM,"[4]; Homo sapiens, SK-HEP1, KN510 200 μM, read-out: Inhibition rate of cancer cell growth (%) (Actual value)",62.8%
same,Cancer cell growth rate Average (%),[4]; KN510 100 μM,53.28%
same,Cancer cell growth rate Average (%),[4]; KN510 200 μM,37.19%
same,inhibition at 100 µM,[5]; [10],53.4%
same,inhibition at 200 µM,[5]; [11],96.4%
same,Cancer cell growth rate Average (%),[5]; KN510 100 μM,46.56%
same,Cancer cell growth rate Average (%),[5]; KN510 200 μM,3.59%
same,inhibition at 100 µM,[6]; [10],34.6%
same,inhibition at 200 µM,[6]; [11],53.9%
same,Cancer cell growth rate Average (%),[6]; KN510 100 μM,65.42%
same,Cancer cell growth rate Average (%),[6]; KN510 200 μM,46.11%
same,inhibition at 100 µM,"[7]; Homo sapiens, NCI-H1975, KN510 100 μM, read-out: Inhibition rate of cancer cell growth (%) (Actual value)",15.5%
same,inhibition at 200 µM,"[7]; Homo sapiens, NCI-H1975, KN510 200 μM, read-out: Inhibition rate of cancer cell growth (%) (Actual value)",56.8%
same,Cancer cell growth rate Average (%),[7]; KN510 100 μM,84.54%
same,Cancer cell growth rate Average (%),[7]; KN510 200 μM,43.18%
same,inhibition at 100 µM,[8]; [10],11.5%
same,inhibition at 200 µM,[8]; [11],59.8%
same,Cancer cell growth rate Average (%),[8]; KN510 100 μM,88.53%
same,Cancer cell growth rate Average (%),[8]; KN510 200 μM,40.18%
same,inhibition at 100 µM,[9]; [10],46.6%
same,inhibition at 200 µM,[9]; [11],66.2%
same,Cancer cell growth rate Average (%),[9]; KN510 100 μM,53.42%
same,Cancer cell growth rate Average (%),[9]; KN510 200 μM,33.81%
